# Experimental data: US20240150270A1, “METHOD FOR SELECTIVE RECOVERY OF LIPOPHILIC COMPOUNDS” (priority 2021, published 2024)
# Experiments:
# [1] = Capture and release of target molecule by cross-linked polymer (HDI-linked cyclodextrin), slurry protocol; type: physicochemical; details: Example 9; 2 mg/mL in 1:1 ethanol:water, 10:1
# Experimental: A mass of CBD was dissolved in ethanol to form a stock solution. A reference sample of the stock solution was diluted with ethanol to obtain a target CBD or other target molecule concentration for a reference measurement. A reaction sample was taken from the remaining stock solution. A cross-linked polysaccharide was combined with the reaction sample in a ratio relative to the CBD or other target molecule concentration present in the reaction sample (by mass) as specified in Examples. The cross-linked polymer is HDI-linked cyclodextrin prepared with a ratio of 8:1 HDI to cyclodextrin.
# Water is combined with the reaction sample until the reaction sample reaches a target CBD or other target molecule concentration, and a target ethanol to water ratio. The reaction mixture including the water is filtered at a cutoff size of between 75 μm to 4,000 μm aperture size, or exposed to a magnetic field with a neodymium magnet through the wall of a flask, to retrieve the cross-linked polymer bound with CBD or other target molecule concentration. Once retrieved, the cross-linked polymer is flushed with a dissociation fluid for dissolving the target molecule.
# Ten milligrams of CBD were dissolved in a 10 mL mixture of 1:1 ethanol to water to produce a reaction mixture with a CBD concentration of 1 mg/mL. A 1 mL aliquot was then taken from the reaction mixture as a reference sample (t=0). […]
# [2] = Dissolution of CBD in ethanol:water mixtures; type: physicochemical
# Experimental: The protocol of Example 9 was followed with the 60 mg initially dissolved in ethanol only. […] The remaining five portions were diluted to an ethanol to water ratio of 7:3, 6:4, 5:5, 4:6 or 3:7. The portions were then filtered to retrieve the cross-linked polymer.
# At 50:50 EtOH:H2O, CBD dissolves provided that EtOH is added first then H2O. At 45:56 EtOH:H2O, the 2 mg/mL CBD solution is cloudy. […] Slowly adding H2O to the CBD, EtOH, polymer mixture results in very high capture of 98% at a 3:7 EtOH:H2O.
# The portions were filtered by pipette filtration to retrieve the cross-linked polymer. The cross-linked polymer was then flushed with DMSO. […] Ten percent of the CBD is not in solution when CBD in 3:7 EtOH:H2O is used. The calculated cyclodextrin capacity within the polymer is 8:1 polymer:CBD.
compound,measurement,setting,value
"C=C(C)[C@@H]1CCC(C)=C[C@H]1c1c(O)cc(CCCCC)cc1O [CBD, cannabidiol]",time to capture plateau,[1],about 5 minutes
same,dissolution of CBD,"[2]; 6 mg/mL in 1:1 EtOH:H2O, sonication and heating",did not dissolve
same,dissolution of CBD,"[2]; 40:60 EtOH:H2O, 2 mg/mL",not fully dissolved
same,dissolution of CBD,"[2]; 45:56 EtOH:H2O, 2 mg/mL",cloudy
same,dissolution of CBD,"[2]; 50:50 EtOH:H2O, 2 mg/mL, EtOH added first then H2O",dissolves
same,CBD not in solution,"[2]; CBD in 3:7 EtOH:H2O, Example 17",Ten
